Measurements as given in US20110045101A1, “FUNGICIDAL SUBSTITUTED AZOLES” (E.I. Du Pont De Nemours and Company, priority 2009, published 2011).
Marks after values point to notes of the source that are not given here.

Key:
Type in all cases: in vivo
Details in all cases: 100 = 100% disease control
Botrytis cinerea = assay: Test C: tomato Botrytis on tomato seedlings, sprayed the day before inoculation, visual disease rating
In short: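 Tomato seedlings were sprayed until run-off with test suspensions in acetone/water (50/50) carrying 250 ppm polyhydric alcohol ester surfactant. Standard dose was 200 ppm, with 40 ppm for marked entries.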

Alternaria solani = assay: Test D: tomato early blight, sprayed the day before inoculation, visual disease rating
In short: (§1)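 200 ppm run-off spray (500 g/ha equivalent); * = 40 ppm. Vehicle: acetone/water 50/50, 250 ppm Trem® 014.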

Septoria nodorum = assay: Test F: wheat glume blotch on wheat seedlings, sprayed the day before inoculation, visual disease rating
In short: as §1

Septoria tritici = assay: Test G: wheat leaf blotch on wheat seedlings, sprayed the day before inoculation, visual disease rating
In short: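 Spray to run-off, 200 ppm (≈500 g/ha; starred = 40 ppm), acetone/water 50/50 + 250 ppm Trem® 014. Spore inoculation +1 d. 24° C saturated 48 h → 20° C 19 d. Visual rating.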

[1] = tested on: Puccinia recondita f. sp. tritici; assay: Test I: wheat leaf rust on wheat seedlings, sprayed the day before inoculation, visual disease rating
In short: as §1

[2] = tested on: Erysiphe graminis f. sp. tritici; assay: Test J: wheat powdery mildew on wheat seedlings, sprayed the day before inoculation, visual disease rating
In short: as §1

[3] = 200 ppm, 0 = no control relative to controls
[4] = 40 ppm (marked *), 0 = no control

SMILES | Test C disease control rating (Botrytis cinerea; [3]) [%] | Test D disease control rating (Alternaria solani; [3]) [%] | Test F disease control rating (Septoria nodorum; [3]) [%] | Test G disease control rating (Septoria tritici; [3]) [%] | Test I disease control rating [1, 3] [%] | Test J disease control rating [2, 3] [%] | Test C disease control rating (Botrytis cinerea; 200 ppm, 0 = no control) [%] | Test D disease control rating (Alternaria solani; 200 ppm, 0 = no control) [%] | Test F disease control rating (Septoria nodorum; 200 ppm, 0 = no control) [%] | Test G disease control rating (Septoria tritici; 200 ppm, 0 = no control) [%] | Test I disease control rating ([1]; 200 ppm, 0 = no control) [%] | Test J disease control rating ([2]; 200 ppm, 0 = no control) [%] | also measured
Cc1nc(Cl)c(-c2c(F)cccc2F)n1-c1cc(F)cc(F)c1 [compound 73] | 100 | 100 | 60 | 87 | 100 | 100 |  |  |  |  |  |  | 
Cc1ncn(-c2ccc(Cl)c(F)c2)c1-c1cccnc1 [compound 252] |  |  |  |  |  |  | 15 | 0 | 0 | 13 | 0 | 0 | 
COc1cc(F)c(-n2cnc(Br)c2-c2ccc(Cl)cc2)c(F)c1 [compound 173] |  |  |  |  |  |  |  |  |  |  |  |  | Test C disease control rating (Botrytis cinerea; [4]): 98* %; Test D disease control rating (Alternaria solani; [4]): 0* %; Test F disease control rating (Septoria nodorum; [4]): 0* %; Test G disease control rating (Septoria tritici; [4]): 90* %; Test I disease control rating [1, 4]: 41* %; Test J disease control rating [2, 4]: 0* %
Cc1ccc(-n2c(Cl)nc(Cl)c2-c2c(F)cc(F)cc2F)cc1 [compound 154] |  |  |  |  |  |  | 99 | 100 | 0 | 93 | 86 | 99 | 
COc1cc(Cl)cc(F)c1-c1c(Cl)nc(C)n1-c1ccc(Cl)cc1 [compound 149] |  |  |  |  |  |  | 53 | 0 | 98 | 96 | 95 | 95 | 
C#Cc1nc(Cl)c(-c2c(F)cccc2F)n1-c1cccc(F)c1 [Compound 47, 4-chloro-5-(2,6-difluorophenyl)-2-ethynyl-1-(3-fluorophenyl)-1H-imidazole] |  |  |  |  |  |  |  |  |  |  |  |  | pest or weed control at 200 ppm (Botrytis cinerea; Botrytis cinerea, 120 h, 200 ppm, 0 = no control relative to controls): 94%; pest or weed control at 200 ppm (Alternaria solani; Alternaria solani, 168 h, 200 ppm, 0 = no control relative to controls): 42%; pest or weed control at 200 ppm (Septoria nodorum; Parastagonospora nodorum, 264 h, 200 ppm, 0 = no control relative to controls): 0%; pest or weed control at 200 ppm (Septoria tritici; Zymoseptoria tritici, 504 h, 200 ppm, 0 = no control relative to controls): 77%; pest or weed control at 200 ppm ([1]; Puccinia recondita, 168 h, 200 ppm, 0 = no control relative to controls): 54%; pest or weed control at 200 ppm ([2]; Blumeria graminis, 168 h, 200 ppm, 0 = no control relative to controls): 93%
Fc1cc(-n2c(Cl)nc(CCl)c2-c2ccccc2F)ccc1Cl [compound 259] |  |  |  |  |  |  | 99 | 16 | 0 | 63 | 82 | 93 | 
Cc1ccc(-n2cnc(Cl)c2-c2c(F)cccc2F)cc1F [compound 161] |  |  |  |  |  |  | 99 | 71 | 0 | 1 | 80 | 100 | 
Cc1nc(Cl)c(-c2c(F)cccc2F)n1Cc1ccc(Cl)c(F)c1 [compound 120] | 98 | 0 | 0 | 96 | 90 | 92 |  |  |  |  |  |  | 
Cc1ccc(-n2c(Br)nc(Cl)c2-c2ccc(F)cc2Cl)cc1 [compound 184] |  |  |  |  |  |  | 99 | 100 | 0 | 97 | 100 | 100 | 
Cc1ncn(-c2c(F)cc(F)cc2F)c1-c1ccc(Cl)cc1 [compound 447] | 94 | 80 | 0 | 30 | 0 | 81 |  |  |  |  |  |  | 
COc1ccc(Cn2c(Cl)nc(Cl)c2-c2c(F)cccc2F)cc1Cl [compound 213] |  |  |  |  |  |  | 63 | 0 | 0 | 96 | 100 | 42 | 
COc1ccc(F)c(-c2c(Cl)nc(Cl)n2-c2ccc(I)cc2)c1F [compound 444] | 99 | 100 | 100 | 98 | 95 | 99 |  |  |  |  |  |  | 
Fc1ccc(Cl)c(F)c1-c1c(Cl)nc(Br)n1-c1ccc(Cl)cc1 [compound 100] | 97 | 93 | 99 | 97 | 98 | 99 |  |  |  |  |  |  | 
Cc1ccc(-n2c(Br)nc(Cl)c2-c2c(F)ccc(F)c2Cl)cc1 [compound 197] |  |  |  |  |  |  | 99 | 99 | 0 | 93 | 100 | 100 | 
Fc1cccc(C(F)(F)F)c1-c1c(Cl)nc(Br)n1-c1ccc(Cl)cc1 [compound 86] | 0 | 0 | 0 | 93 | 27 | 99 |  |  |  |  |  |  | 
Cc1ncn(-c2ccc(Cl)c(F)c2)c1-c1ccncc1 [compound 253] |  |  |  |  |  |  | 94 | 0 | 0 | 91 | 74 | 0 | 
COc1cc(F)c(-c2c(Cl)nc(C)n2-c2ccccc2)c(F)c1C [compound 439] | 97 | 100 | 95 | 94 | 100 | 100 |  |  |  |  |  |  | 
CSc1ccc(F)c(-c2c(Cl)nc(Br)n2-c2ccc(Cl)cc2)c1F [compound 231] |  |  |  |  |  |  | 87 | 61 | 100 | 99 | 96 | 98 | 
Fc1ccc(F)c(-c2c(Cl)nc(Br)n2-c2ccc(Cl)cc2)c1F [compound 50] | 98 | 100 | 100 | 92 | 100 | 100 |  |  |  |  |  |  | 
Cc1ccc(-n2c(C)nc(Cl)c2-c2c(F)cccc2F)cc1F [compound 175] |  |  |  |  |  |  | 97 | 97 | 82 | 98 | 100 | 99 | 
Cc1c(CCl)sc(-c2cnc(Cl)n2-c2ccc(Cl)cc2)c1Cl [compound 451] | 0 | 0 | 0 | 82 | 19 | 0 |  |  |  |  |  |  | 
